Assay results reported in patent US20160066572A1, “METHOD OF SANITIZING EDIBLE SEEDS, PARTICULARLY MUCILAGE PRODUCING SEEDS” (AGRI-NEO INC., priority 2013, published 2016).

Key:
[1] = test system: Total count Aerobic bacteria; test: Total aerobic count on seeds, grains and spices sprayed with sanitizing solutions (Example 1); type: cell-based
Description: (§1) Seeds were mechanically cleaned and spread in stainless steel containers. Each 100 grams seeds were sprayed with 4 ml total solutions descried above via conventional trigger vaporizer. This solution is equivalent to 40 L disinfecting solution total sprayed on 1-tonne seeds. Seeds, grains and spices were selected to represent all families and types of seeds, grains and spices. Another criterium was to select seeds and grains contaminated with a high count of total aerobic bacteria, yeast, mold, E. coli, Salmonella sp. and other pathogenic microorganisms.
(§2) Seeds, grains and spices treated were: • Whole dried pea, • Split pea dried, • Pea fiber, • Vanilla, • Chia, • Sprouted flax and chia, • Flax, • Hemp, and • Black pepper seeds

yeast and mold (Y&M) = test: Y&M count on seeds, grains and spices sprayed with sanitizing solutions (Example 1); type: cell-based; conditions: 40 L/tonne; for Y&M, Av: average; for Y&M, n1: replicate n1; for Y&M, n2: replicate n2
Description: as §1, §2

chia and flax seeds = test: Mucilage release from mucilaginous seeds after treatment; conditions: alcohol in the aqueous sanitizing composition
Description: A minimum of 4 ml of the treatment solution was sprayed, using a handheld atomizing sprayer while mixing, on 100 gram samples of chia and flax seeds. The samples were allowed to air dry and checked for mucilage.
A minimum of 4 ml of the treatment solution was sprayed, using a handheld atomizing sprayer while mixing, on 100-gram samples of chia and flax seeds. The samples were allowed to air dry and checked for mucilage.

[2] = whole dried pea, 40 L per 1 tonne

Structure (SMILES): CCO [2- Alcohol - ethanol, ethanol]
- bactericidal effect (conclusion) ([1]; black pepper, 40 L per 1 tonne): not a strong bactericidal agent
- Total count Aerobic CFU/g bacteria, Av ([1]; black pepper, 40 L/tonne, average): Av = 1 million
- Total count Aerobic CFU/g bacteria, Av ([1]; chia seeds, 40 L/tonne, average): Av = 510,000 CFU/g
- Total count Aerobic CFU/g bacteria, n1 ([1]; chia seeds, 40 L/tonne, replicate n1): n1 = 520,000 CFU/g
- Total count Aerobic CFU/g bacteria, n2 ([1]; chia seeds, 40 L/tonne, replicate n2): n2 = 500,000 CFU/g
- Total count Aerobic CFU/g bacteria, Av ([1]; flax seeds, 40 L/tonne, average): Av = 2 millions
- Total count Aerobic CFU/g bacteria, n1 ([1]; flax seeds, 40 L/tonne, replicate n1): n1 = 1.8 millions
- Total count Aerobic CFU/g bacteria, n2 ([1]; flax seeds, 40 L/tonne, replicate n2): n2 = 2.2 millions
- bactericidal effect (conclusion) ([1]; hemp, 40 L per 1 tonne): not a strong bactericidal agent
- Total count Aerobic CFU/g bacteria, Av ([1]; hemp, 40 L/tonne, average): Av = 1 million
- Total count Aerobic CFU/g bacteria, n1 ([1]; hemp, 40 L/tonne, replicate n1): n1 = 800,000 CFU/g
- Total count Aerobic CFU/g bacteria, n2 ([1]; hemp, 40 L/tonne, replicate n2): n2 = 1.2 millions
- bactericidal effect (conclusion) ([1]; pea fiber, 40 L per 1 tonne): not a strong bactericidal agent
- Total count Aerobic CFU/g bacteria, Av ([1]; pea fiber, 40 L/tonne, average): Av = 700,000 CFU/g
- Total count Aerobic CFU/g bacteria, n1 ([1]; pea fiber, 40 L/tonne, replicate n1): n1 = 500,000 CFU/g
- Total count Aerobic CFU/g bacteria, n2 ([1]; pea fiber, 40 L/tonne, replicate n2): n2 = 900,000 CFU/g
- bactericidal effect (conclusion) ([1]; split pea, 40 L per 1 tonne): not a strong bactericidal agent
- bactericidal effect (conclusion) ([1]; sprouted flax and chia): bactericidal agent but not very strong
- Total count Aerobic CFU/g bacteria, Av ([1]; sprouted flax and chia, 40 L/tonne, average): Av = 600,000 CFU/g
- Total count Aerobic CFU/g bacteria, n1 ([1]; sprouted flax and chia, 40 L/tonne, replicate n1): n1 = 550,000 CFU/g
- Total count Aerobic CFU/g bacteria, n2 ([1]; sprouted flax and chia, 40 L/tonne, replicate n2): n2 = 650,000 CFU/g
- bactericidal effect (conclusion) ([1]; vanilla, 40 L per 1 tonne): not a strong bactericidal agent
- Total count Aerobic CFU/g bacteria, Av ([1]; vanilla, 40 L/tonne, average): Av = 1 million
- Total count Aerobic CFU/g bacteria, n1 ([1]; vanilla, 40 L/tonne, replicate n1): n1 = 1 million
- Total count Aerobic CFU/g bacteria, n2 ([1]; vanilla, 40 L/tonne, replicate n2): n2 = 1 million
- bactericidal effect (conclusion) [1, 2]: not a strong bactericidal agent
- Total count Aerobic - CFU/g bacteria, Av ([1]; whole dried pea, 40 L/tonne, average): Av = 900,000 CFU/g
- Total count Aerobic - CFU/g bacteria, n1 ([1]; whole dried pea, 40 L/tonne, replicate n1): n1 = 800,000 CFU/g
- Total count Aerobic - CFU/g bacteria, n2 ([1]; whole dried pea, 40 L/tonne, replicate n2): n2 = 1 million
- Total count Aerobic CFU/g bacteria, Av ([1]; whole split pea, 40 L/tonne, average): Av = 700,000 CFU/g
- Total count Aerobic CFU/g bacteria, n1 ([1]; whole split pea, 40 L/tonne, replicate n1): n1 = 700,000 CFU/g
- Total count Aerobic CFU/g bacteria, n2 ([1]; whole split pea, 40 L/tonne, replicate n2): n2 = 700,000 CFU/g
- Y&M, Av (yeast and mold (Y&M); black pepper): Av = 1,000 Y&M CFU/g
- Y&M, Av (yeast and mold (Y&M); chia seeds): Av = 10,000 Y&M CFU/g
- Y&M, n1 (yeast and mold (Y&M); chia seeds): n1 = 10,000/n2 = 10,000 CFU/g
- Y&M, n2 (yeast and mold (Y&M); chia seeds): n1 = 10,000/n2 = 10,000 CFU/g
- Y&M, Av (yeast and mold (Y&M); flax seeds): Av = 1,000 Y&M CFU/g
- Y&M, n1 (yeast and mold (Y&M); flax seeds): n1 = 1,000/n2 = 1,000 CFU/g
- Y&M, n2 (yeast and mold (Y&M); flax seeds): n1 = 1,000/n2 = 1,000 CFU/g
- Y&M, Av (yeast and mold (Y&M); hemp): Av = 1,000 Y&M CFU/g
- Y&M, n1 (yeast and mold (Y&M); hemp): n1 = 1000/n2 = 1000 CFU/g
- Y&M, n2 (yeast and mold (Y&M); hemp): n1 = 1000/n2 = 1000 CFU/g
- Y&M, Av (yeast and mold (Y&M); pea fiber): Y&M not detected
- Y&M, n1 (yeast and mold (Y&M); pea fiber): n1, n2 not detected
- Y&M, n2 (yeast and mold (Y&M); pea fiber): n1, n2 not detected
- Y&M, Av (yeast and mold (Y&M); sprouted flax and chia): Av = 1,000 Y&M CFU/g
- Y&M, n1 (yeast and mold (Y&M); sprouted flax and chia): n1 = 1,000/n2 = 1,000 CFU/g
- Y&M, n2 (yeast and mold (Y&M); sprouted flax and chia): n1 = 1,000/n2 = 1,000 CFU/g
- Y&M, Av (yeast and mold (Y&M); vanilla): Av = 1,000 Y&M CFU/g
- Y&M, n1 (yeast and mold (Y&M); vanilla): n1 = 1000/n2 = 1000 CFU/g
- Y&M, n2 (yeast and mold (Y&M); vanilla): n1 = 1000/n2 = 1000 CFU/g
- Y&M, Av (yeast and mold (Y&M); whole dried pea): Y&M not detected
- Y&M, n1 (yeast and mold (Y&M); whole dried pea): n1, n2 not detected
- Y&M, n2 (yeast and mold (Y&M); whole dried pea): n1, n2 not detected
- Y&M, Av (yeast and mold (Y&M); whole split pea): Y&M not detected
- Y&M, n1 (yeast and mold (Y&M); whole split pea): n1, n2 not detected
- Y&M, n2 (yeast and mold (Y&M); whole split pea): n1, n2 not detected

Structure (SMILES): CC(=O)OO [Peracetic acid]
- bactericidal effect (conclusion) ([1]; black pepper, 40 L per 1 tonne): strong bactericidal agent
- bactericidal effect (conclusion) ([1]; hemp, 40 L per 1 tonne): strong bactericidal agent
- bactericidal effect (conclusion) ([1]; pea fiber, 40 L per 1 tonne): strong bactericidal agent
- bactericidal effect (conclusion) ([1]; split pea, 40 L per 1 tonne): strong bactericidal agent
- bactericidal effect (conclusion) ([1]; vanilla, 40 L per 1 tonne): strong bactericidal agent
- bactericidal effect (conclusion) [1, 2]: strong bactericidal agent

Structure (SMILES): CCO [ethanol]
- effective amount (concentration) required to suppress mucilage release (chia and flax seeds): about 15 % by volume

Structure (SMILES): CC(O)CO (centres unmarked) [propylene glycol]
- effective amount (concentration) required to suppress mucilage release (chia and flax seeds): about 13 % by volume
